Patent US20220096652A1, “ACETAL-BASED CLEAVABLE LINKERS” (Synaffix B.V., priority 2019, published 2022)
“Also recorded” adds a separate entry of the source.

Experiments:
[1] = Incubation in 1:1 PBS (pH 7.4) / DMF, UPLC-MS; assay type: physicochemical; conditions: pH 7.4, Papain NO, 1:1 PBS/DMF, overnight; based on peak area (UV 254 nm)
Protocol: To a 1:1 mixture of PBS (pH 7.4) and DMF (199 μL) was added a 10 mM solution of 10 in DMF (1 μL). The mixture was incubated overnight and analyzed by UPLC-MS. Intermediate 10-Int and DXd were not observed.
To a 1:1 mixture of PBS (pH 7.4) and DMF (199 μL) was added a 10 mM solution of 18 in DMF (1 μL). The mixture was incubated overnight and analysed by UPLC-MS. Intermediate 18-Int and DXd were not observed.
To a 1:1 mixture of PBS (pH 7.4) and DMF (199 μL) was added a 10 mM solution of 26 in DMF (1 μL). The mixture was incubated overnight and analysed by UPLC-MS. Intermediate 26-Int and DXd were not observed.

[2] = target: T1, Papain (Carica papaya, UniProt P00784); assay: Papain digestion of linker-drug in histidine acetate buffer, UPLC-MS; assay type: in vitro ADME; conditions: pH 6, Papain YES, 37° C., 19 h (10, 18) or 67 h (26)
T1 sequence (P00784 134-345): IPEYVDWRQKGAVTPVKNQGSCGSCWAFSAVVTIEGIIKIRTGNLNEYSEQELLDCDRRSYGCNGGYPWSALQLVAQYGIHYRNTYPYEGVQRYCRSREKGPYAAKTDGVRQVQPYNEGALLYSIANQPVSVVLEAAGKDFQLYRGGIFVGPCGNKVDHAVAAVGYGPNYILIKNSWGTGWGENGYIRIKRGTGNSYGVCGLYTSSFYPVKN
Protocol: To an Eppendorf vial containing histidine acetate buffer (50 μL, 20 mM, pH 6) were added a solution of 10 in DMF (3 μL, 10 mM) and a Papain solution in histidine acetate buffer (0.5 mg/mL, 20 mM buffer, pH 6).
To an Eppendorf vial containing histidine acetate buffer (50 μL, 20 mM, pH 6) were added a solution of 18 in DMF (3 μL, 10 mM) and a Papain solution in histidine acetate buffer (0.5 mg/mL, 20 mM buffer, pH 6).
To an Eppendorf vial containing histidine acetate buffer (50 μL, 20 mM, pH 6) were added a solution of 26 in DMF (3 μL, 10 mM) and a Papain solution in histidine acetate buffer (0.5 mg/mL, 20 mM buffer, pH 6).

[3] = Negative control: incubation in histidine acetate buffer pH 6 without Papain, UPLC-MS; assay type: physicochemical; conditions: pH 6, Papain NO, 37° C., 18 h (10, 18) or 67 h (26); for Ratio DXd / s.m.: based on peak area (UV 254 nm)
Protocol: To an Eppendorf vial containing histidine acetate buffer (110 μL, 20 mM, pH 6) was added a solution of 10 in DMF (3 μL, 10 mM).
To an Eppendorf vial containing histidine acetate buffer (110 μL, 20 mM, pH 6) was added a solution of 18 in DMF (3 μL, 10 mM).
To an Eppendorf vial containing histidine acetate buffer (110 μL, 20 mM, pH 6) was added a solution of 26 in DMF (3 μL, 10 mM). […] The intermediate 26-Int was not observed.

| Structure (SMILES) | Ratio DXd / s.m. [1] | Formation of DXd [2] | Ratio DXd / s.m. [3] | Formation of DXd [3] |
| --- | --- | --- | --- | --- |
| CC[C@@]1(O)C(=O)OCc2c1cc1n(c2=O)Cc2c-1nc1cc(F)c(C)c3c1c2[C@@H](NC(=O)COCOCc1ccc(NC(=O)[C@H](C)NC(=O)[C@@H](NC(=O)OCCOCCNC(=O)OC[C@@H]2[C@@H]4CCC#CCC[C@@H]42)C(C)C)cc1)CC3 [Compound 10] | 0 | only a very small amount of material was transformed into DXd; also recorded: + / − | 0 | – |
| CC[C@@]1(O)C(=O)OCc2c1cc1n(c2=O)Cc2c-1nc1cc(F)c(C)c3c1c2[C@@H](NC(=O)COC(C)OCc1ccc(NC(=O)[C@H](C)NC(=O)[C@@H](NC(=O)OCCOCCNC(=O)OC[C@@H]2[C@@H]4CCC#CCC[C@@H]42)C(C)C)cc1)CC3 (stereo partly shown) [Compound 18] | 0 | – | 0 | – |
| CC[C@@]1(O)C(=O)OCc2c1cc1n(c2=O)Cc2c-1nc1cc(F)c(C)c3c1c2[C@@H](NC(=O)COC1(OCc2ccc(NC(=O)[C@H](C)NC(=O)[C@@H](NC(=O)OCCOCCNC(=O)OC[C@@H]4[C@@H]5CCC#CCC[C@@H]54)C(C)C)cc2)CCCCC1)CC3 [Compound 26] | 0 | – | – | partial conversion of 26 into DXd; also recorded: + / − |
